Reference: ChEMBL document CHEMBL1135947, “Structure-based design and synthesis of HIV-1 protease inhibitors employing beta-D-mannopyranoside scaffolds” (Bioorg Med Chem Lett, 2002)

How the values were obtained:
[1] = biological target: T1, Human immunodeficiency virus type 1 protease (Human immunodeficiency virus 1, UniProt Q72874); test: Compound was tested for inhibitory activity against HIV-1 protease
[2] = biological target: T1, Human immunodeficiency virus type 1 protease; test: Compound was tested for inhibitory activity against HIV-1 protease; Not active

SMILES: COc1ccc(O[C@@H]2C(CNC(=O)OCc3ccccc3)O[C@@H](OC)[C@H](O)C2OCc2ccccc2)cc1 (stereo partly specified)
- IC50 [1]: 4.48 µM

SMILES: CO[C@@H]1OC(CNC(=O)C(C)(C)C)[C@@H](O)C(O)[C@@H]1O (stereo partly specified)
- IC50 [2]: Not Active

SMILES: CO[C@@H]1OC(CNC(=O)OCc2ccccc2)[C@@H](O)C(OCc2ccccc2)[C@H]1O (stereo partly specified)
- IC50 [1]: 4.66 µM

SMILES: CO[C@@H]1OC2COC(c3ccccc3)O[C@H]2C(OCc2ccccc2)[C@H]1O (stereo partly specified)
- IC50 [1]: 4.85 µM

SMILES: COc1ccc(O[C@@H]2C(CNC(C)=O)O[C@@H](OC)[C@H](O)C2OCc2ccccc2)cc1 (stereo partly specified)
- IC50 [1]: 7.74 µM

SMILES: CC(=O)NCC1O[C@@H](Oc2ccccc2)C(O)C(O)[C@@H]1O (single isomer, unassigned)
- IC50 [1]: 8.95 µM
